Measured values as given in ChEMBL document CHEMBL6177985, “Discovery of Novel Cyclic Peptides as SMAD2-SMAD4 Interaction Inhibitors for the Treatment of Hepatic Fibrosis” (J Med Chem, 2025).
Calls of active or inactive are those of the source. No cut-off for these calls is given here.

Tests used:
Homo sapiens = species on record: Homo sapiens; assay: Inhibition of TGF-beta induced his tagged human SMAD2/human SMAD4 interaction at 100 uM incubated for 1 hr followed by anti-His-HRP addition and measured after 1 hr by blocking assay relative to control; conditions: time 2.0 hrs
Mus musculus [1] = assay: Anti-fibrotic activity against CCl4-induced liver fibrosis male C57BL/6J mouse model assessed as effect on SMAD1/5/8 phosphorylation in liver at 400 microg/kg, ip measured for 3 weeks by Western blot analysis; format: functional, organism-based; conditions: dose 400.0 µg/kg
LX-2 [2] = assay: Inhibition of HSC activation in TGFbeta-induced human LX-2 cells assessed as reduction in COL1A1 by Western blot analysis; format: functional, cell-based; conditions: dose 25-100 µM
LX-2 [3] = assay: Inhibition of SMAD2 phosphorylation level in TGF-beta and TMSO induced human LX-2 cells at 300 uM by immunoblot analysis; format: functional, cell-based
Mus musculus [4] = species on record: Mus musculus; assay: Effect on gene expression in CCl4-induced male C57BL/6J mouse assessed as upregulation of genes associated with collagen deposition in liver tissue by RT-PCR analysis; format: functional, organism-based
LX-2 [5] = assay: Inhibition of HSC activation in TGFbeta-induced human LX-2 cells assessed as reduction in COL1A1 at 100 uM by Western blot analysis; format: functional, cell-based
Mus musculus [6] = species on record: Mus musculus; assay: Effect on gene expression in CCl4-induced male C57BL/6J mouse assessed as change in genes associated with cellular component in liver tissue by RT-PCR analysis; format: functional, organism-based
Mus musculus [7] = assay: Anti-fibrotic activity against CCl4-induced liver fibrosis male C57BL/6J mouse model assessed as alleviation of COL1A1 level at 400 microg/kg, ip measured for 3 weeks by immunohistochemical staining based analysis; format: functional, organism-based; conditions: dose 400.0 µg/kg
LX-2 [8] = assay: Downregulation of TGF-beta induced COL1A1 level in human LX-2 cells at 100 uM by Immunoblot analysis; format: functional, cell-based
LX-2 [9] = assay: Inhibition of TGF-beta induced SMAD2 phosphorylation level in human LX-2 cells by Western blot analysis; format: functional, cell-based; conditions: dose 25-100 µM
Mus musculus [10] = assay: Anti-fibrotic activity against CCl4-induced liver fibrosis male C57BL/6J mouse model assessed as decrease in collagen deposition at 400 microg/kg, ip measured for 3 weeks; format: functional, organism-based; conditions: dose 400.0 µg/kg
LX-2 [11] = assay: Inhibition of TGF-beta induced SMAD1/5/8 phosphorylation level in human LX-2 cells at 100 uM by Western blot analysis; format: functional, cell-based
LX-2 [12] = assay: Inhibition of HSC activation in TGFbeta-induced human LX-2 cells assessed as reduction in alpha-SMA at 100 uM by Western blot analysis; format: functional, cell-based
LX-2 [13] = assay: Downregulation of TGF-beta induced SMAD2 phosphorylation level in human LX-2 cells at 100 uM by Immunoblot analysis; format: functional, cell-based
LX-2 [14] = assay: Inhibition of TGF-beta induced SMAD2 phosphorylation level in human LX-2 cells at 100 uM by Western blot analysis; format: functional, cell-based
Mus musculus [15] = assay: Anti-fibrotic activity against CCl4-induced liver fibrosis male C57BL/6J mouse model assessed as reduction in COL1A1 expression in liver at 400 microg/kg, ip measured for 3 weeks by Western blot analysis; format: functional, organism-based; conditions: dose 400.0 µg/kg
LX-2 [16] = assay: Inhibition of TGF-beta induced SMAD3 phosphorylation level in human LX-2 cells at 100 uM by Western blot analysis; format: functional, cell-based
[17] = Stability in rat serum measured up to 48 hrs by LC-MS/MS analysis; format: ADME, cell-free
LX-2 [18] = assay: Inhibition of HSC activation in TGFbeta-induced human LX-2 cells assessed as reduction in alpha-SMA by Western blot analysis; format: functional, cell-based; conditions: dose 25-100 µM
Mus musculus [19] = assay: Anti-fibrotic activity against CCl4-induced liver fibrosis male C57BL/6J mouse model assessed as reduction in P65 phosphorylation level in liver at 400 microg/kg, ip measured for 3 weeks by Western blot analysis; format: functional, organism-based; conditions: dose 400.0 µg/kg
LX-2 [20] = assay: Antifibrotic activity against TGF-beta1 stimulated human LX-2 cells assessed as reduction in alpha-SMA expression at 100 uM incubated for 24 hrs by Western blotting analysis; format: functional, cell-based
Mus musculus [21] = species on record: Mus musculus; assay: Effect on gene expression in CCl4-induced male C57BL/6J mouse assessed as upregulation of genes associated with inflammatory response in liver tissue by RT-PCR analysis; format: functional, organism-based
Mus musculus [22] = assay: Anti-fibrotic activity against CCl4-induced liver fibrosis male C57BL/6J mouse model assessed as reduction of ALT level at 400 microg/kg, ip measured for 3 weeks by biochemical analysis; format: functional, organism-based; conditions: dose 400.0 µg/kg
Mus musculus [23] = assay: Anti-fibrotic activity against CCl4-induced liver fibrosis male C57BL/6J mouse model assessed as alleviation of alpha SMA level at 400 microg/kg, ip measured for 3 weeks by immunohistochemical staining based analysis; format: functional, organism-based; conditions: dose 400.0 µg/kg
LX-2 [24] = assay: Downregulation of TGF-beta induced P65 phosphorylation level in human LX-2 cells at 100 uM by Immunoblot analysis; format: functional, cell-based
Mus musculus [25] = assay: Anti-fibrotic activity against CCl4-induced liver fibrosis male C57BL/6J mouse model assessed as reduction in SMAD2 level in liver at 400 microg/kg, ip measured for 3 weeks by Western blot analysis; format: functional, organism-based; conditions: dose 400.0 µg/kg
Mus musculus [26] = species on record: Mus musculus; assay: Effect on gene expression in CCl4-induced male C57BL/6J mouse assessed as change in genes associated with biological process in liver tissue by RT-PCR analysis; format: functional, organism-based
LX-2 [27] = assay: Antifibrotic activity against TGF-beta1 stimulated human LX-2 cells assessed as reduction in COL1A1 expression at 100 uM incubated for 24 hrs by Western blotting analysis; format: functional, cell-based
Mus musculus [28] = assay: Anti-fibrotic activity against CCl4-induced liver fibrosis male C57BL/6J mouse model assessed as reduction of AST level at 400 microg/kg, ip measured for 3 weeks by biochemical analysis; format: functional, organism-based; conditions: dose 400.0 µg/kg
Mus musculus [29] = assay: Anti-fibrotic activity against CCl4-induced liver fibrosis male C57BL/6J mouse model assessed as reduction in alpha-SMA expression in liver at 400 microg/kg, ip measured for 3 weeks by Western blot analysis; format: functional, organism-based; conditions: dose 400.0 µg/kg
LX-2 [30] = assay: Downregulation of TGF-beta induced alpha-SMA level in human LX-2 cells at 100 uM by Immunoblot analysis; format: functional, cell-based
Mus musculus [31] = assay: Anti-fibrotic activity against CCl4-induced liver fibrosis male C57BL/6J mouse model assessed as decrease in inflammatory infiltration at 400 microg/kg, ip measured for 3 weeks; format: functional, organism-based; conditions: dose 400.0 µg/kg
Mus musculus [32] = assay: Anti-fibrotic activity against CCl4-induced liver fibrosis male C57BL/6J mouse model assessed as effect on SMAD3 phosphorylation in liver at 400 microg/kg, ip measured for 3 weeks by Western blot analysis; format: functional, organism-based; conditions: dose 400.0 µg/kg
Mus musculus [33] = species on record: Mus musculus; assay: Effect on gene expression in CCl4-induced male C57BL/6J mouse assessed as change in genes associated with molecular function in liver tissue by RT-PCR analysis; format: functional, organism-based

SMILES: C[C@@H]1NC(=O)[C@@H]2CCCN2C(=O)[C@H](CCCNC(=N)N)NC(=O)[C@H]([C@@H](C)O)NC(=O)[C@H](CO)NC(=O)[C@H]([C@@H](C)O)NC(=O)[C@H](CCC(=O)O)NC(=O)[C@H](Cc2c[nH]c3ccccc23)NC(=O)[C@@H](Cc2ccccc2)NC(=O)[C@H](CO)NC1=O
- inhibition (Homo sapiens): 85.6%
- Activity (Mus musculus [1]): inactive
- inhibition (LX-2 [2]): Dose-dependent-effect
- inhibition (LX-2 [3]): inactive
- Activity (Mus musculus [4]): Active
- inhibition (LX-2 [5]): Active
- Activity (Mus musculus [6]): Active
- Activity (Mus musculus [7]): Active
- Activity (LX-2 [8]): Active
- inhibition (LX-2 [9]): Dose-dependent-effect
- Activity (Mus musculus [10]): Active; Compound Showed Higher Efficacy Than M10
- inhibition (LX-2 [11]): inactive
- inhibition (LX-2 [12]): Active
- Activity (LX-2 [13]): Active
- inhibition (LX-2 [14]): Active
- Activity (Mus musculus [15]): Active; Compound Showed Superior Effect Than M10
- inhibition (LX-2 [16]): inactive
- Stability [17]: Stable
- inhibition (LX-2 [18]): Dose-dependent-effect
- Activity (Mus musculus [19]): Active; Compound Showed Superior Effect Than M10
- Activity (LX-2 [20]): Active
- Activity (Mus musculus [21]): Active
- Activity (Mus musculus [22]): Active
- Activity (Mus musculus [23]): Active
- Activity (LX-2 [24]): Active
- Activity (Mus musculus [25]): Active; Compound Showed Superior Effect Than M10
- Activity (Mus musculus [26]): Active
- Activity (LX-2 [27]): Active
- Activity (Mus musculus [28]): Active
- Activity (Mus musculus [29]): Active; Compound Showed Superior Effect Than M10
- Activity (LX-2 [30]): Active
- Activity (Mus musculus [31]): Active; Compound Showed Higher Efficacy Than M10
- Activity (Mus musculus [32]): inactive
- Activity (Mus musculus [33]): Active
